Data on seven compounds can be found in patent publication US7109242B2, “Carboxylic compound and medicine comprising the same” (Kowa Company, Ltd., priority 2003, dated 2006).

Counter-ions that a name gives are not always drawn.

One test deals with C57BL/KsJ db/db mouse. Description: Actions of lowering plasma glucose, insulin and triglyceride in vivo in db/db mice. The conditions noted are these: for Reduction rate of plasma glucose / Reduction rate of plasma insulin / Reduction rate of plasma triglyceride: blood two hours after administration on 14th day; for Plasma glucose reducing action (ED25): oral once a day for 14 days, dose required for reduction of plasma glucose concentration by 25%, vehicle group as 100%. The source says: The compounds of the present invention and the aforementioned Compound A and pioglitazone hydrochloride each as a reference compound were subjected to the measurements of the actions of lowering plasma glucose, insulin, and triglyceride in vivo according to the following method (Metabolism, 48, pp34–40, 1999, Journal of Medicinal Chemistry, 44, pp2601–2611, 2001).
C57BL/KsJ db/db mouse (Journal of Clinical Investigation, 85, pp 962–967, 1990) was used as an experimental animal, which was developed in The Jackson Laboratory (USA) and is known as a model animal with obesity, hyperlipemia, hyperinsulinemia, and insulin resistance.
Bloods were collected from seven weeks old db/db mice from their orbital sinus by using heparin-treated capillary tubes. After centrifugation of the bloods, plasma was collected and then subjected to measurements of concentrations of plasma glucose, insulin, and triglyceride to divide the animals. From the next day of the day of blood collection, the administrations of the compounds were started. The compounds were orally administered once a day for 14 days. On the 14th day, blood was collected from orbital sinus two hours after the administration of the compounds. Plasma was collected, and subjected to measurements of concentrations of plasma glucose, insulin, and triglyceride.
The dose required for reduction of plasma glucose concentration by 25% (ED25) was obtained using the value of the vehicle administered group as 100% (Arznimittel-Forschung, 40, pp156–162, 1990).

The target in the next test is T1, PPAR γ (Homo sapiens, UniProt P37231).
T1 sequence (P37231 1-505): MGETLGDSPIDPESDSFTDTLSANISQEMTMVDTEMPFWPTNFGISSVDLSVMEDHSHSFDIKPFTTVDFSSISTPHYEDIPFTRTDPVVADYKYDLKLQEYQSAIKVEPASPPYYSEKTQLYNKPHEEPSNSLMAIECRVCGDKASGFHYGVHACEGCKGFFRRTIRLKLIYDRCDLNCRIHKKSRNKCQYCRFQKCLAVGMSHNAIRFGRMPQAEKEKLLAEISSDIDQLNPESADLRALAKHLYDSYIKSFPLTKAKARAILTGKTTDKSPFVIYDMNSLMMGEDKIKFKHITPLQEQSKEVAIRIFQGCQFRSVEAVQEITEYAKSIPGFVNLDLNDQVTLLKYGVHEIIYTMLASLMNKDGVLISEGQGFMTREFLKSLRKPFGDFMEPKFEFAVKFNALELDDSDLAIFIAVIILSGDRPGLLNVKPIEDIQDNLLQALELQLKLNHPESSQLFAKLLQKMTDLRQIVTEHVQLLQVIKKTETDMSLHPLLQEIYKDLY
The conditions noted are these: mode of action of thiazolidinedione type compounds; cited from earlier work.

Where [1] appears, read: 0.5 mg/kg orally once a day for 14 days, 0.5 mg/kg.
Setting [2] is: 1.5 mg/kg orally once a day for 14 days, 1.5 mg/kg.
[3] abbreviates: 5 mg/kg orally once a day for 14 days, 5 mg/kg.
Where [4] appears, read: 1 mg/kg orally once a day for 14 days.
Where [5] appears, read: 3 mg/kg orally once a day for 14 days.
Setting [6] is: 10 mg/kg orally once a day for 14 days.
[7] abbreviates: 30 mg/kg orally once a day for 14 days.

With `O=C(O)C(Cl)(Cl)CCCCCCCC(O)CCc1ccc(Cl)cc1` (single isomer, unassigned; (+)) [Example 5(4), (+)-2,2-dichloro-12-(4-chlorophenyl)-10-hydroxydodecanoic acid], the “Reduction rate of plasma glucose” value in the test on C57BL/KsJ db/db mouse (setting [1]) is 20.7 ± 14.3; with C57BL/KsJ db/db mouse (setting [2]), 40.6 ± 5.8; in the test with C57BL/KsJ db/db mouse (setting [3]), 42.4 ± 11.4. The “Reduction rate of plasma insulin” value is reported as −22.0 ± 84.1 with C57BL/KsJ db/db mouse (setting [1]), 39.5 ± 37.5 in the test on C57BL/KsJ db/db mouse (setting [2]) and 43.8 ± 26.3 in the test with C57BL/KsJ db/db mouse (setting [3]). Also, the “Reduction rate of plasma triglyceride” value is given as 42.0 ± 17.3 in the test with C57BL/KsJ db/db mouse (setting [1]), 48.3 ± 6.9 in the test with C57BL/KsJ db/db mouse (setting [2]) and 44.6 ± 9.7 with C57BL/KsJ db/db mouse (setting [3]). Also, the “Plasma glucose reducing action (ED25)” value in the test with C57BL/KsJ db/db mouse and in the test with C57BL/KsJ db/db mouse (listed as Example 5 (4)) was 0.5 mg/kg throughout.
Regarding `O=C(O)C(Cl)(Cl)CCCCCCCC(O)CCc1ccc(Cl)cc1` (single isomer, unassigned; (-)) [Example 5(5), (−)-2,2-dichloro-12-(4-chlorophenyl)-10-hydroxydodecanoic acid], in the test with C57BL/KsJ db/db mouse (setting [1]), the “Reduction rate of plasma glucose” value was −10.3, the “Reduction rate of plasma insulin” value stood at 20.8 ± 32.0 and the “Reduction rate of plasma triglyceride” value is listed as 23.0 ± 13.8. In the test on C57BL/KsJ db/db mouse (setting [2]), the “Reduction rate of plasma glucose” value came out at 28.5 ± 10.7, the “Reduction rate of plasma insulin” value is 20.4 ± 38.0 and the “Reduction rate of plasma triglyceride” value turned out to be 40.5 ± 15.3. In the test on C57BL/KsJ db/db mouse (setting [3]), the “Reduction rate of plasma glucose” value is reported as 49.2 ± 9.6, the “Reduction rate of plasma insulin” value came to 68.9 ± 13.2 and the “Reduction rate of plasma triglyceride” value was 37.6 ± 11.3. In addition, the “Plasma glucose reducing action (ED25)” value in the test with C57BL/KsJ db/db mouse came to 1.7 mg/kg.
Take `O=C(O)C(Cl)(Cl)CCCCCCCCCCc1ccc(Cl)cc1` [Compound A]: in the test with C57BL/KsJ db/db mouse (setting [4]), the “Reduction rate of plasma glucose” value is reported as −5.0 ± 19.5, the “Reduction rate of plasma insulin” value was 0.7 ± 77.6 and the “Reduction rate of plasma triglyceride” value worked out at 23.4 ± 15.3. In the test on C57BL/KsJ db/db mouse (setting [5]), the “Reduction rate of plasma glucose” value is reported as 25.4 ± 17.7, the “Reduction rate of plasma insulin” value stood at 7.4 ± 18.7 and the “Reduction rate of plasma triglyceride” value is listed as 27.5 ± 17.5. Moreover, in the test on C57BL/KsJ db/db mouse (setting [6]), the “Reduction rate of plasma glucose” value turned out to be 65.3 ± 5.0, the “Reduction rate of plasma insulin” value was determined as 10.7 ± 61.6 and the “Reduction rate of plasma triglyceride” value turned out to be 54.6 ± 4.1. Besides, the “Plasma glucose reducing action (ED25)” value in the test on C57BL/KsJ db/db mouse is 2.8 mg/kg. The “PPAR γ activating action” value on PPAR γ is reported as “no PPAR γ activating action”.
With `O=C(O)C(Cl)(Cl)CCCCCCCC(O)CCc1ccc(Cl)cc1` (stereo not shown) [Example 2(4), 2,2-dichloro-12-(4-chlorophenyl)-10-hydroxydodecanoic acid], the “Reduction rate of plasma glucose” value stood at 44.4 ± 17.0 with C57BL/KsJ db/db mouse (setting [5]), 66.6 ± 4.1 in the test with C57BL/KsJ db/db mouse (setting [6]) and 75.2 ± 3.1 in the test on C57BL/KsJ db/db mouse (setting [7]). For the same compound, the “Reduction rate of plasma insulin” value with C57BL/KsJ db/db mouse (setting [5]) is recorded as −12.5 ± 58.1; in the test on C57BL/KsJ db/db mouse (setting [6]), 39.1 ± 21.3; in the test on C57BL/KsJ db/db mouse (setting [7]), 64.3 ± 10.1. In addition, the “Reduction rate of plasma triglyceride” value in the test on C57BL/KsJ db/db mouse (setting [5]) was found to be 53.2 ± 6.9; in the test on C57BL/KsJ db/db mouse (setting [6]) it was 54.1 ± 5.5; in the test with C57BL/KsJ db/db mouse (setting [7]), 55.7 ± 6.3. Further, the “Plasma glucose reducing action (ED25)” value with C57BL/KsJ db/db mouse and with C57BL/KsJ db/db mouse (listed as Example 2 (4)) was 0.6 mg/kg throughout.
In the case of `O=C(O)C(Cl)(Cl)CCCCCCCCCC(O)c1ccc(Cl)cc1` (stereo not shown) [Example 3(4), 2,2-dichloro-12-(4-chlorophenyl)-12-hydroxydodecanoic acid], in the test with C57BL/KsJ db/db mouse (setting [5]), the “Reduction rate of plasma glucose” value is 29.3 ± 28.7, the “Reduction rate of plasma insulin” value is given as −2.8 ± 46.6 and the “Reduction rate of plasma triglyceride” value was found to be 23.2 ± 24.7. Further, in the test with C57BL/KsJ db/db mouse (setting [6]), the “Reduction rate of plasma glucose” value came out at 53.4 ± 14.7, the “Reduction rate of plasma insulin” value amounted to 39.0 ± 10.3 and the “Reduction rate of plasma triglyceride” value worked out at 40.6 ± 8.9. In the test with C57BL/KsJ db/db mouse (setting [7]), the “Reduction rate of plasma glucose” value is on record as 74.5 ± 3.0, the “Reduction rate of plasma insulin” value came out at 61.7 ± 18.5 and the “Reduction rate of plasma triglyceride” value was 25.8 ± 24.7. Besides, the “Plasma glucose reducing action (ED25)” value with C57BL/KsJ db/db mouse turned out to be 2.4 mg/kg.
In the case of `O=C(O)C(Cl)(Cl)CCCCCCCCC(O)Cc1ccc(Cl)cc1` (stereo not shown) [Example 4(4), 2,2-dichloro-12-(4-chlorophenyl)-11-hydroxydodecanoic acid], the figures for the “Reduction rate of plasma glucose” value with C57BL/KsJ db/db mouse (setting [5]), with C57BL/KsJ db/db mouse (setting [6]) and in the test with C57BL/KsJ db/db mouse (setting [7]) were 35.0 ± 21.2, 65.2 ± 8.0 and 67.2 ± 6.8, respectively. The “Reduction rate of plasma insulin” value is −19.8 ± 71.8 in the test on C57BL/KsJ db/db mouse (setting [5]), 20.3 ± 24.9 in the test with C57BL/KsJ db/db mouse (setting [6]) and 51.1 ± 20.2 with C57BL/KsJ db/db mouse (setting [7]). In addition, the “Reduction rate of plasma triglyceride” value is recorded as 45.5 ± 13.9 in the test on C57BL/KsJ db/db mouse (setting [5]), 58.8 ± 3.7 in the test with C57BL/KsJ db/db mouse (setting [6]) and 54.1 ± 6.6 with C57BL/KsJ db/db mouse (setting [7]). Also, in the test on C57BL/KsJ db/db mouse, the “Plasma glucose reducing action (ED25)” value is 1.1 mg/kg.
`CCc1ccc(CCOc2ccc(CC3SC(=O)NC3=O)cc2)nc1` (stereo not shown) [Pioglitazone hydrochloride, reference compound]: in the test on C57BL/KsJ db/db mouse (setting [5]), the “Reduction rate of plasma glucose” value is 13.4 ± 18.3, the “Reduction rate of plasma insulin” value was −24.7 ± 119.3 and the “Reduction rate of plasma triglyceride” value is listed as 9.4 ± 15.9. In the test with C57BL/KsJ db/db mouse (setting [6]), the “Reduction rate of plasma glucose” value amounted to 22.3 ± 22.8, the “Reduction rate of plasma insulin” value is −18.7 ± 52.5 and the “Reduction rate of plasma triglyceride” value was 25.4 ± 16.9. Besides, in the test with C57BL/KsJ db/db mouse (setting [7]), the “Reduction rate of plasma glucose” value is 45.2 ± 21.2, the “Reduction rate of plasma insulin” value is 13.9 ± 22.7 and the “Reduction rate of plasma triglyceride” value was 38.2 ± 8.1. Moreover, in the test with C57BL/KsJ db/db mouse, the “Plasma glucose reducing action (ED25)” value is recorded as 8.3 mg/kg.
